# Target: GST-Bcl-2 (Homo sapiens (Human), UniProt P10415)
# Experiment: Time Resolved-Fluorescence Resonance Energy Transfer (TR-FRET) Bcl-2 binding assay
# Conditions: GST-Bcl-2 1 nM, F-Bak peptide probe 100 nM, Tb-anti-GST antibody 1 nM; Ki by Wang's equation
# Summary of the method: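 Ki values derived from TR-FRET displacement of F-Bak peptide from GST-Bcl-2, detected with Tb-labelled anti-GST antibody (ex 340, em 520/495 nm). Compound dilution series started at 50 μM (2× starting concentration); room-temperature incubation 3 hours.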
# GST-Bcl-2, sequence (P10415 whole entry): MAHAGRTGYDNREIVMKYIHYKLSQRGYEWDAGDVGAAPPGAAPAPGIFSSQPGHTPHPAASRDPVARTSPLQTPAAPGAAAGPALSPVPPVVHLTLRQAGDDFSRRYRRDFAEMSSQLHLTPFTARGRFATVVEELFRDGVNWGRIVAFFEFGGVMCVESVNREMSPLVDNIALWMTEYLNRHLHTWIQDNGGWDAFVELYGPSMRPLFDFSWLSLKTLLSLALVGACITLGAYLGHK
row,SMILES,Ki [µM]
1,"O=C(NS(=O)(=O)c1ccc(NCC2CCOCC2)c([N+](=O)[O-])c1)c1ccc(N2CCN(Cc3ccccc3-c3ccc(Cl)cc3)CC2)cc1Oc1ccc2[nH]cc(CCCN3CCOCC3)c2c1 [Example 74, 4-(4-((4′-chloro-1,1′-biphenyl-2-yl)methyl)piperazin-1-yl)-2-((3-(3-morpholin-4-ylpropyl)-1H-indol-5-yl)oxy)-N-((3-nitro-4-((tetrahydro-2H-pyran-4-ylmethyl)amino)phenyl)sulfonyl)benzamide]",0.189
2,"CN(C)Cc1ccc(Oc2cc(N3CCN(Cc4ccccc4-c4ccc(Cl)cc4)CC3)ccc2C(=O)NS(=O)(=O)c2ccc(NCC3CCOCC3)c([N+](=O)[O-])c2)cc1 [Example 75, 4-(4-((4′-chloro-1,1′-biphenyl-2-yl)methyl)piperazin-1-yl)-2-(4-((dimethylamino)methyl)phenoxy)-N-((3-nitro-4-((tetrahydro-2H-pyran-4-ylmethyl)amino)phenyl)sulfonyl)benzamide]",0.0768
3,"O=C(NS(=O)(=O)c1ccc(NCC2CCOCC2)c([N+](=O)[O-])c1)c1ccc(N2CCN(Cc3ccccc3-c3ccc(Cl)cc3)CC2)cc1Oc1ccc(-n2ccnc2)cc1 [Example 76, 4-(4-((4′-chloro-1,1′-biphenyl-2-yl)methyl)piperazin-1-yl)-2-(4-(1H-imidazol-1-yl)phenoxy)-N-((3-nitro-4-((tetrahydro-2H-pyran-4-ylmethyl)amino)phenyl)sulfonyl)benzamide]",0.24
4,"O=C(NS(=O)(=O)c1ccc(NCC2CCOCC2)cc1)c1ccc(N2CCN(Cc3ccccc3-c3ccc(Cl)cc3)CC2)cc1Oc1cccc([N+](=O)[O-])c1 [Example 77, 4-(4-((4′-chloro-1,1′-biphenyl-2-yl)methyl)piperazin-1-yl)-2-(3-nitrophenoxy)-N-((4-((tetrahydro-2H-pyran-4-ylmethyl)amino)phenyl)sulfonyl)benzamide]",0.451
5,"CCN(Cc1ccc(Oc2cc(N3CCN(Cc4ccccc4-c4ccc(Cl)cc4)CC3)ccc2C(=O)NS(=O)(=O)c2ccc(NCC3CCOCC3)c([N+](=O)[O-])c2)cc1)C(=O)OC(C)(C)C [Example 78, tert-butyl 4-(5-(4-((4′-chloro-1,1′-biphenyl-2-yl)methyl)piperazin-1-yl)-2-((((3-nitro-4((tetrahydro-2H-pyran-4-ylmethyl)amino)phenyl)sulfonyl)amino)carbonyl)phenoxy)benzyl(ethyl)carbamate]",> 1.2
6,"CCN(Cc1cccc(Oc2cc(N3CCN(Cc4ccccc4-c4ccc(Cl)cc4)CC3)ccc2C(=O)NS(=O)(=O)c2ccc(NCC3CCOCC3)c([N+](=O)[O-])c2)c1)C(=O)OC(C)(C)C [Example 79, tert-butyl 3-(5-(4-((4′-chloro-1,1′-biphenyl-2-yl)methyl)piperazin-1-yl)-2-((((3-nitro-4-((tetrahydro-2H-pyran-4-ylmethyl)amino)phenyl)sulfonyl)amino)carbonyl)phenoxy)benzyl(ethyl)carbamate]",0.0998
7,"CCNCc1cccc(Oc2cc(N3CCN(Cc4ccccc4-c4ccc(Cl)cc4)CC3)ccc2C(=O)NS(=O)(=O)c2ccc(NCC3CCOCC3)c([N+](=O)[O-])c2)c1 [Example 81, 4-(4-((4′-chloro-1,1′-biphenyl-2-yl)methyl)piperazin-1-yl)-2-(3-((ethylamino)methyl)phenoxy)-N-((3-nitro-4-((tetrahydro-2H-pyran-4-ylmethyl)amino)phenyl)sulfonyl)benzamide]",0.031
8,"CC(=O)Nc1ccc(Oc2cc(N3CCN(Cc4ccccc4-c4ccc(Cl)cc4)CC3)ccc2C(=O)NS(=O)(=O)c2ccc(NCC3CCOCC3)c([N+](=O)[O-])c2)cc1 [Example 82, 2-(4-(acetylamino)phenoxy)-4-(4-((4′-chloro-1,1′-biphenyl-2-yl)methyl)piperazin-1-yl)-N-((3-nitro-4-((tetrahydro-2H-pyran-4-ylmethyl)amino)phenyl)sulfonyl)benzamide]",0.512
9,"CC(C)(C)OC(=O)Nc1ccc(Oc2cc(N3CCN(Cc4ccccc4-c4ccc(Cl)cc4)CC3)ccc2C(=O)NS(=O)(=O)c2ccc(NCC3CCOCC3)c([N+](=O)[O-])c2)cc1 [Example 83, tert-butyl 4-(5-(4-((4′-chloro-1,1′-biphenyl-2-yl)methyl)piperazin-1-yl)-2-((((3-nitro-4-((tetrahydro-2H-pyran-4-ylmethyl)amino)phenyl)sulfonyl)amino)carbonyl)phenoxy)phenylcarbamate]",> 1.2
10,"O=C(NS(=O)(=O)c1ccc(NCC2CCOCC2)c([N+](=O)[O-])c1)c1ccc(N2CCN(Cc3ccccc3-c3ccc(Cl)cc3)CC2)cc1Oc1ccccc1-c1ccccc1 [Example 84, 2-(1,1′-biphenyl-2-yloxy)-4-(4-((4′-chloro-1,1′-biphenyl-2-yl)methyl)piperazin-1-yl)-N-((3-nitro-4-((tetrahydro-2H-pyran-4-ylmethyl)amino)phenyl)sulfonyl)benzamide]",0.0137
11,"CC(C)(C)OC(=O)Nc1cccc(Oc2cc(N3CCN(Cc4ccccc4-c4ccc(Cl)cc4)CC3)ccc2C(=O)NS(=O)(=O)c2ccc(NCC3CCOCC3)c([N+](=O)[O-])c2)c1 [Example 85, tert-butyl 3-(5-(4-((4′-chloro-1,1′-biphenyl-2-yl)methyl)piperazin-1-yl)-2-((((3-nitro-4-((tetrahydro-2H-pyran-4-ylmethyl)amino)phenyl)sulfonyl)amino)carbonyl)phenoxy)phenylcarbamate]",0.00563
12,"O=C(NS(=O)(=O)c1ccc(NCC2CCOCC2)c([N+](=O)[O-])c1)c1ccc(N2CCN(Cc3ccccc3-c3ccc(Cl)cc3)CC2)cc1Oc1cccc(-c2ccccc2)c1 [Example 86, 2-(1,1′-biphenyl-3-yloxy)-4-(4-((4′-chloro-1,1′-biphenyl-2-yl)methyl)piperazin-1-yl)-N-((3-nitro-4-((tetrahydro-2H-pyran-4-ylmethyl)amino)phenyl)sulfonyl)benzamide]",0.00526
13,"CN(C)CCc1ccc(Oc2cc(N3CCN(Cc4ccccc4-c4ccc(Cl)cc4)CC3)ccc2C(=O)NS(=O)(=O)c2ccc(NCC3CCOCC3)c([N+](=O)[O-])c2)cc1 [Example 87, 4-(4-((4′-chloro-1,1′-biphenyl-2-yl)methyl)piperazin-1-yl)-2-(4-(2-(dimethylamino)ethyl)phenoxy)-N-((3-nitro-4-((tetrahydro-2H-pyran-4-ylmethyl)amino)phenyl)sulfonyl)benzamide]",0.264
14,"O=C(NS(=O)(=O)c1ccc(NCC2CCOCC2)c([N+](=O)[O-])c1)c1ccc(N2CCN(Cc3ccccc3-c3ccc(Cl)cc3)CC2)cc1Oc1ccc(OCc2ccccc2)cc1 [Example 88, 2-(4-(benzyloxy)phenoxy)-4-(4-((4′-chloro-1,1′-biphenyl-2-yl)methyl)piperazin-1-yl)-N-((3-nitro-4-((tetrahydro-2H-pyran-4-ylmethyl)amino)phenyl)sulfonyl)benzamide]",> 1.2
15,"O=C(NS(=O)(=O)c1ccc(NCC2CCOCC2)c([N+](=O)[O-])c1)c1ccc(N2CCN(Cc3ccccc3-c3ccc(Cl)cc3)CC2)cc1Oc1cccc(N2CCOCC2)c1 [Example 89, 4-(4-((4′-chloro-1,1′-biphenyl-2-yl)methyl)piperazin-1-yl)-2-(3-morpholin-4-ylphenoxy)-N-((3-nitro-4-((tetrahydro-2H-pyran-4-ylmethyl)amino)phenyl)sulfonyl)benzamide]",0.00611
16,"Cc1nc2cc(Oc3cc(N4CCN(Cc5ccccc5-c5ccc(Cl)cc5)CC4)ccc3C(=O)NS(=O)(=O)c3ccc(NCC4CCOCC4)c([N+](=O)[O-])c3)ccc2s1 [Example 90, 4-(4-((4′-chloro-1,1′-biphenyl-2-yl)methyl)piperazin-1-yl)-2-((2-methyl-1,3-benzothiazol-5-yl)oxy)-N-((3-nitro-4-((tetrahydro-2H-pyran-4-ylmethyl)amino)phenyl)sulfonyl)benzamide]",0.0106
17,"CC(C)(C)OC(=O)N1CCN(c2cccc(Oc3cc(N4CCN(Cc5ccccc5-c5ccc(Cl)cc5)CC4)ccc3C(=O)NS(=O)(=O)c3ccc(NCC4CCOCC4)c([N+](=O)[O-])c3)c2)CC1 [Example 91, tert-butyl 4-(3-(5-(4-((4′-chloro-1,1′-biphenyl-2-yl)methyl)piperazin-1-yl)-2-((((3-nitro-4-((tetrahydro-2H-pyran-4-ylmethyl)amino)phenyl)sulfonyl)amino)carbonyl)phenoxy)phenyl)piperazine-1-carboxylate]",> 1.2
18,"CN(C)CCCNc1ccc(S(=O)(=O)NC(=O)c2ccc(N3CCN(Cc4ccccc4-c4ccc(Cl)cc4)CC3)cc2Oc2cccc(OCc3ccccc3)c2)cc1[N+](=O)[O-] [Example 92, 2-(3-(benzyloxy)phenoxy)-4-(4-((4′-chloro-1,1′-biphenyl-2-yl)methyl)piperazin-1-yl)-N-((4-((3-(dimethylamino)propyl)amino)-3-nitrophenyl)sulfonyl)benzamide]",0.00257
19,"O=C(NS(=O)(=O)c1ccc(NCCCN2CCOCC2)c([N+](=O)[O-])c1)c1ccc(N2CCN(Cc3ccccc3-c3ccc(Cl)cc3)CC2)cc1Oc1cccc(OCc2ccccc2)c1 [Example 93, 2-(3-(benzyloxy)phenoxy)-4-(4-((4′-chloro-1,1′-biphenyl-2-yl)methyl)piperazin-1-yl)-N-((4-((3-morpholin-4-ylpropyl)amino)-3-nitrophenyl)sulfonyl)benzamide]",0.0168
20,"O=C(NS(=O)(=O)c1ccc(NCC2CCOCC2)c([N+](=O)[O-])c1)c1ccc(N2CCN(Cc3ccccc3-c3ccc(Cl)cc3)CC2)cc1Oc1ccc(OCCN2CCOCC2)cc1 [Example 94, 4-(4-((4′-chloro-1,1′-biphenyl-2-yl)methyl)piperazin-1-yl)-2-(4-(2-morpholin-4-ylethoxy)phenoxy)-N-((3-nitro-4-((tetrahydro-2H-pyran-4-ylmethyl)amino)phenyl)sulfonyl)benzamide]",0.561
21,"O=C1CCc2c(cccc2Oc2cc(N3CCN(Cc4ccccc4-c4ccc(Cl)cc4)CC3)ccc2C(=O)NS(=O)(=O)c2ccc(NCC3CCOCC3)c([N+](=O)[O-])c2)N1 [Example 95, 4-(4-((4′-chloro-1,1′-biphenyl-2-yl)methyl)piperazin-1-yl)-N-((3-nitro-4-((tetrahydro-2H-pyran-4-ylmethyl)amino)phenyl)sulfonyl)-2-((2-oxo-1,2,3,4-tetrahydroquinolin-5-yl)oxy)benzamide]",0.000428

# From patent US8952157B2, “Apoptosis-inducing agents for the treatment of cancer and immune and autoimmune diseases” (AbbVie Inc., priority 2008, dated 2015)
